Reference: patent US11453671B2, “Pyrazolopyrimidine inhibitors of JAK kinases and uses thereof” (Genentech, Inc., priority 2020, dated 2022)

How the values were obtained:
[1] = molecular target: Recombinant human JAK2 kinase domain protein (Residues 812-1132) (Homo sapiens, UniProt O60674); assay: JAK2 biochemical assay (microfluidic mobility shift, peptide phosphorylation); conditions: Enzyme JAK2 Ki (nM), 25 μM ATP, 0.2 nM total JAK2
[2] = molecular target: T1, recombinant human JAK1 kinase domain protein (Residues 854-1154) (Homo sapiens, UniProt P23458); assay: JAK1 biochemical assay (microfluidic mobility shift, peptide phosphorylation); conditions: 25 μM ATP, 1 nM total JAK1; read-out: Enzyme JAK1 Ki
T1 construct: human JAK1 kinase domain protein (Residues 854-1154); purchased Proteros Biostructures GmbH (Martinsried, Germany); host or cells: insect cells
T1 sequence (P23458 854-1154): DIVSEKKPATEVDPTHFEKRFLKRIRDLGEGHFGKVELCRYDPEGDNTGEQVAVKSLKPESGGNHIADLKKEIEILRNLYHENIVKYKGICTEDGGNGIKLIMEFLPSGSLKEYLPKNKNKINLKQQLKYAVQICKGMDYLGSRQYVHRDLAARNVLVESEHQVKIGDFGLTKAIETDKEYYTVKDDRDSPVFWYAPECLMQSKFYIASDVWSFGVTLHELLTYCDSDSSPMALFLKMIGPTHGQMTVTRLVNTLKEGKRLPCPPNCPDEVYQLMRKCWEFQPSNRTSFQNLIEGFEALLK
Description: JAK1 and JAK2 Biochemical Assays

[3] = Cell cytotoxicity assay Jurkat (CellTiter-Glo, 72 hours); type: cell-based; conditions: human, Jurkat clone E6-1 cells, read-out: Cytotox Jurkat EC50
Description: (§1) Cytotoxicity assays. Hepatocyte toxicity, general cytotoxicity or cytotoxicity of unknown mechanism is an undesirable feature for a potential drug, including inhaled drugs. It may be of benefit for an inhaled JAK1 or JAK1/JAK2 inhibitor to have low intrinsic cytotoxicity against various cell types. Typical cell types used to assess cytotoxicity include both primary cells such as human hepatocytes, and proliferating established cell lines such as Jurkat and HEK-293. […] Methods of measuring cytotoxicity are known in the art. In some embodiments, compounds described herein were tested as follows:
(§2) (a) Jurkat and HEK293T cells were maintained at a sub confluent density in T175 flasks. Cells were plated at 450 cells/45 μl medium in Greiner 384 well black/clear tissue culture treated plates. (Greiner Catalog #781091). After dispensing cells, plates were equilibrated at room temperature for 30 minutes. After 30 minutes at room temperature, cells were incubated overnight at 37° C. in a CO2 and humidity controlled incubator. The following day, cells were treated with compounds diluted in 100% DMSO (final DMSO concentration on cells=0.5%) with a 10 point dose-response curve with a top concentration of 50 μM. Cells and compounds were then incubated for 72 hours overnight at 37° C. in a CO2 and humidity controlled incubator. After 72 hours of incubation, viability was measured using CellTiterGlo® (Promega Catalog #G7572) to all wells. After incubation at room temperature for 20 minutes, plates were read on EnVision™ (Perkin Elmer Life Sciences) using luminescence mode;
(§3) A549 (ATCC® CCL-185™), Jurkat clone E6-1 (ATCC® TIB-152™) and HEK-293T (ATCC® CRL-1573™) cells maintained at a sub-confluent density in T175 flasks were used. Cells in exponential growth phase were plated (450 cells in 45 μL of medium) in Greiner 384-well black/clear tissue culture treated plates (Greiner Catalog No. 781091). After dispensing cells, plates were allowed to equilibrate at room temperature for 30 minutes, after which time the cell plates were placed overnight in a 37° C. CO2 and humidity-controlled incubator. The following day, cells were treated with test agent diluted in 100% DMSO (0.5% final DMSO concentration on cells) with a 10-point titration and a top concentration of 50 μM. Cells and compounds were then incubated for 72 hours in a 37° C. CO2 and humidity-controlled incubator, after which time cell viability was measured by adding CellTiter-Glo® (Promega G7572) reagent to all wells. Plates were incubated at room temperature for 20 minutes and then the well luminescence was read on an EnVision plate reader (Perkin Elmer Life Sciences).

[4] = Cell cytotoxicity assay HEK-293T (CellTiter-Glo, 72 hours); type: cell-based; conditions: human, HEK-293T cells, read-out: Cytotox K-293 EC50
Description: as §1, §2, §3

[5] = system: JAK1: IL-13-stimulated STAT6 phosphorylation in BEAS-2B cells; assay: P-STAT6 BEAS-2B+IL-13 Cell Assay; type: cell-based, human; conditions: Homo sapiens, BEAS-2B, IL-13 stimulation, read-out: Cellular JAK1 PSTAT6 BEAS2B + IL13 IC50
Experimental: P-STAT6 BEAS-2B+IL-13 Cell Assay
In order to study the effect of JAK1 inhibitors in a cell line that is relevant to the cell biology of human asthma, an IL-13-stimulated STAT6 phosphorylation assay in the human lung bronchial epithelial BEAS-2B cell line was developed.
BEAS-2B cells (ATCC® CRL-9609™) were grown in Bronchial Epithelial Growth Medium (BEGM) (Lonza Catalog No. CC-3170; Walkersville, Md.; or PromoCell Catalog No. C-21060; Heidelberg, Germany). Test compound stock solutions (0.5 mM in DMSO) were serially diluted 1:2 in DMSO to generate a 10-point concentration curve (at 500×test concentration), which was further diluted by a 50-fold dilution step in BEGM to generate a 10× concentration curve (in 2% DMSO). Cells were plated at 100,000 cells/well in 200 μL of BEGM in 96-well plates and incubated for 48 hours at 37° C. in a humidified incubator. Medium was aspirated from the cells and replaced with 70 μL of fresh BEGM. Diluted test compound (10 μL; or 2% DMSO in assay medium) was added to the cells, and the plates were incubated for 1 hour at 37° C. in a humidified incubator. Twenty μL of 250 ng/mL human recombinant IL-13 (Bio Techne Catalog No. 213-ILB) was then added to the cells and incubated for 15 minutes at 37° C. Medium was aspirated from the cells and 60 μL of ice-cold 1×cell lysis buffer (Cell Signaling Technologies; Catalog No. 9803S) containing 1 mM PMSF was added to the cells. Assay plates were incubated at −80° C. for at least 1 hour. P-STAT6 was measured by coating GAR plates (MSD; Catalog No. L45RA-1) with rabbit anti-human total STAT6 antibody (Cell Signaling Technologies; Catalog No. 9362S), incubating the cell lysates in the coated plates overnight at 4° C., and then detecting with mouse anti-phospho-STAT6 (Tyr641) Clone 16E12 antibody (Millipore; Catalog No. 05-590, custom labeled by MSD with SULFO-tag) using standard MSD plate processing, washing, and detection protocols. Plates were read on the MESO SECTOR S600. Data Analysis
Data analysis was performed by subtracting negative control values from all wells and determining percent of control using the positive control values; the IC50 was determined with a four-parameter logistic fit model as shown in Equation 4.

[6] = Cell cytotoxicity assay A549 (CellTiter-Glo, 72 hours); type: cell-based; conditions: human, A549 cells, read-out: Cytotox A549 EC50
Experimental: as §3

[7] = Table 3, 72 hours, top concentration of 50 μM
[8] = Table 4, methyl-desmethyl analog pairs

Chain of Recombinant human JAK2 kinase domain protein (Residues 812-1132) (O60674 812-1132): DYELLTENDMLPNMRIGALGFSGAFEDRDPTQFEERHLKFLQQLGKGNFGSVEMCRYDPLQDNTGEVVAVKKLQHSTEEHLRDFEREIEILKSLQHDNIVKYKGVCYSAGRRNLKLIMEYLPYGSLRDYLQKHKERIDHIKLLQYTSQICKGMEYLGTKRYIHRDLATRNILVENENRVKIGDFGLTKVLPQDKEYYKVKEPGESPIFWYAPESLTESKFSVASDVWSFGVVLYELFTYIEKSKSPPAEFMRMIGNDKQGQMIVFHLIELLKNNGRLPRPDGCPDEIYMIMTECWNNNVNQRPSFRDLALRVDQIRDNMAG

SMILES	Ki [1]	Ki [2]	EC50 at 72 h [3, 7]	EC50 at 72 h [4, 7]	IC50 [5]	EC50 at 72 h [6, 7]	EC50 at 72 h [3, 8]	EC50 at 72 h [4, 8]	EC50 at 72 h [6, 8]
CCS(=O)(=O)c1ccc(OC(F)F)c(-c2n[nH]cc2NC(=O)c2cnn3cccnc23)c1 [Example. 192 in WO201708 9390, reference compound]							790 nM	437 nM	2370 nM
CS(=O)(=O)c1ccc(OC(F)F)c(-c2n[nH]cc2NC(=O)c2cnn3cccnc23)c1 [Example 4 in WO201708 9390, reference compound]							6200 nM	2100 nM	22000 nM
Cn1cc(NC(=O)c2cnn3cccnc23)c(-c2cc(S(=O)(=O)c3cccc(O)c3)ccc2OC(F)F)n1 [Example 11, N-[3-[2-(difluoromethoxy)-5-(3-hydroxyphenyl)sulfonyl-phenyl]-1-methyl-pyrazol-4-yl]pyrazolo[1,5-a]pyrimidine-3-carboxamide]	0.12 nM	0.21 nM	5500 nM	3700 nM	17 nM	6400 nM			
O=C(Nc1c[nH]nc1-c1cc(S(=O)(=O)C(F)F)ccc1OC(F)F)c1cnn2cccnc12 [reference compound]							160 nM	38 nM	260 nM
Cn1cc(NC(=O)c2cnn3cccnc23)c(-c2cc(S(=O)(=O)C3CCNC3)ccc2OC(F)F)n1 (centres unmarked) [Example 10, N-[3-[2-(difluoromethoxy)-5-pyrrolidin-3-ylsulfonyl-phenyl]-1-methyl-pyrazol-4-yl]pyrazolo[1,5-a]pyrimidine-3-carboxamide]	0.6 nM	0.95 nM			52 nM				

The next lines start with results.

Ki [1]	Ki [2]	SMILES	EC50 at 72 h [3, 7]	EC50 at 72 h [4, 7]	IC50 [5]	EC50 at 72 h [6, 7]	EC50 at 72 h [3, 8]	EC50 at 72 h [4, 8]	EC50 at 72 h [6, 8]
0.25 nM	0.6 nM	CC(O)C(C)S(=O)(=O)c1ccc(OC(F)F)c(-c2nn(C)cc2NC(=O)c2cnn3cccnc23)c1 (single isomer, unassigned) [Example 68, N-[3-[2-(difluoromethoxy)-5-(2-hydroxy-1-methyl-propyl)sulfonyl-phenyl]-1-methyl-pyrazol-4-yl]pyrazolo[1,5-a]pyrimidine-3-carboxamide]	32000 nM	19000 nM	62 nM	≥ 50000 nM			
	0.48 nM	CCS(=O)(=O)c1ccc(OC(F)F)c(-c2nn(C)cc2NC(=O)c2cnn3cccnc23)c1 [Example 6, N-[3-[2-(difluoromethoxy)-5-ethylsulfonyl-phenyl]-1-methyl-pyrazol-4-yl]pyrazolo[1,5-a]pyrimidine-3-carboxamide]	21500 nM	6050 nM	18 nM	6750 nM	21500 nM	6050 nM	6750 nM
0.18 nM	0.27 nM	Cn1cc(NC(=O)c2cnn3cccnc23)c(-c2cc(S(=O)(=O)C(F)F)ccc2OC(F)F)n1 [Example 9, N-[3-[2-(difluoromethoxy)-5-(difluoromethylsulfonyl)phenyl]-1-methyl-pyrazol-4-yl]pyrazolo[1,5-a]pyrimidine-3-carboxamide]	3500 nM	2200 nM	15 nM	1660 nM	3500 nM	2200 nM	1660 nM
1.5 nM	0.94 nM	CN1CCC[C@H]1Cn1cc(NC(=O)c2cnn3cccnc23)c(-c2cc(S(C)(=O)=O)ccc2OC(F)F)n1 [Example 72, N-[3-[2-(difluoromethoxy)-5-methylsulfonyl-phenyl]-1-[[(2S)-1-methylpyrrolidin-2-yl]methyl]pyrazol-4-yl]pyrazolo[1,5-a]pyrimidine-3-carboxamide]	49000 nM	20000 nM	31 nM	≥ 50000 nM			
0.53 nM	1.5 nM	Cn1cc(NC(=O)c2cnn3cccnc23)c(-c2cc(S(=O)(=O)C(CF)CF)ccc2OC(F)F)n1 [Example 39, N-[3-[2-(difluoromethoxy)-5-[2-fluoro-1-(fluoromethyl)ethyl]sulfonyl-phenyl]-1-methyl-pyrazol-4-yl]pyrazolo[1,5-a]pyrimidine-3-carboxamide]			230 nM				
